Data from US20110112135A1, “Imidazo [1,2-A] Pyridine Compounds” (priority 2007, published 2011).

How the values were obtained:
human LXRα = molecular target: T1, human LXRα (Homo sapiens, UniProt Q13133); experiment: Ligand-binding test procedure for human LXRα (3H T0901317 tracer, flash plates); details: biotinylated hLXRα from E. coli extract; tracer 3H T0901317
T1 construct: biotin (biotinylated); made in house; host or cells: E. coli (crude extract)
T1 sequence (Q13133 1-447): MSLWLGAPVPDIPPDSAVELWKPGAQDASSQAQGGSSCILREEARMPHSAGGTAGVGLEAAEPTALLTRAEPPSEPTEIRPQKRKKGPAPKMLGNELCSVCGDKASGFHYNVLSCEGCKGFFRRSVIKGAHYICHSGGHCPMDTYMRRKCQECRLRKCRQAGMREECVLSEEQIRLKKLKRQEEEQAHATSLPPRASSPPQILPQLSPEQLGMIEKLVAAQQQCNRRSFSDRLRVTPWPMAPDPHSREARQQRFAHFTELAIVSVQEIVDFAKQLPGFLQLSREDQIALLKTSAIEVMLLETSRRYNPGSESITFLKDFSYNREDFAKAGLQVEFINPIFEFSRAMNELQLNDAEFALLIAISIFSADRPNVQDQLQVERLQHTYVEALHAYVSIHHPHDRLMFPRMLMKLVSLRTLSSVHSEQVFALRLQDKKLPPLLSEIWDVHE
Protocol: II. Ligand-Binding Test Procedure for Human LXRα.
Receptor source: E. coli extract from cells expressing biotinylated hLXRα. Extract was made in a similar buffer as above, but with 50 mM TRIS.
(§1) Washed streptavidin and coated flash plates with wash buffer. Diluted receptor extract to give Bmax ˜4000 cpm and add to the wells. Wrapped the plates in aluminum foil and stored them at +4° C. over night.
(§2) Made a dilution series in DMSO of the test ligands. Made a 5 nM solution of the radioactive tracer in buffer. Mixed 250 μl diluted tracer with 5 μl of the test ligand from each concentration of the dilution series. Washed the receptor-coated flash plates. Added 200 μl per well of the ligand/radiolabel mixture to the receptor-coated flash plates. Wrapped the plates in aluminum foil and incubate at +4° C. over night.
(§3) Aspirated wells, and wash the flashed plates. Sealed the plate. Measured the remaining radioactivity in the plate.

human LXRβ = molecular target: T2, human LXRβ (Homo sapiens, UniProt P55055); experiment: Ligand-binding test procedure for human LXRβ (3H T0901317 tracer, flash plates); details: biotinylated hLXRβ from E. coli extract; tracer 3H T0901317
T2 construct: biotin (biotinylated); made in house; host or cells: E. coli (crude extract)
T2 sequence (P55055 1-460): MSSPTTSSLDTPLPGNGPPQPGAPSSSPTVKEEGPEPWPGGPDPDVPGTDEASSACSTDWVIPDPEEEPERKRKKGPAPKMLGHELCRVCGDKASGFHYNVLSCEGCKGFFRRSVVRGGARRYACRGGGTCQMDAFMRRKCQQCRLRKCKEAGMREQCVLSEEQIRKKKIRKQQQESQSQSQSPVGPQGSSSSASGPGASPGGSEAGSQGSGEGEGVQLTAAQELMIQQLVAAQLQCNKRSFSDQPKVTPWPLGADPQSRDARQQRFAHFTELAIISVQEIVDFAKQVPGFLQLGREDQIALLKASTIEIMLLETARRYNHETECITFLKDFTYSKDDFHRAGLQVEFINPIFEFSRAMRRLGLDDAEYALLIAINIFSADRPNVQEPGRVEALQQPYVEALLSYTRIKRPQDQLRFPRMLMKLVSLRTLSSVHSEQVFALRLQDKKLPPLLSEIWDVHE
Protocol: I. Ligand-Binding Test Procedure for Human LXRβ.
Receptor source: E. coli extract from cells expressing biotinylated hLXRβ. Extract was made in a similar buffer as above, but with 50 mM TRIS.
as §1, §2, §3

Row | Structure (SMILES) | IC50 (human LXRα) [nM] | IC50 (human LXRβ) [nM]
1 | CCCS(=O)(=O)c1cccc(Oc2cccc(-c3c(C)nc4c(C(F)(F)F)cccn34)c2)c1 [Example 11, 2-methyl-3-(3-(3-(propylsulfonyl)phenoxy)phenyl)-8-(trifluoromethyl)imidazo[1,2-a]pyridine] | 1480 | 143
2 | Cc1nc2c(C(F)(F)F)cccn2c1-c1cccc(Oc2cccc(S(=O)(=O)CCC(C)(C)O)c2)c1 [Example 14, 2-methyl-4-[(3-{3-[2-methyl-8-(trifluoromethyl)imidazo[1,2-a]pyridin-3-yl]phenoxy}phenyl)sulfonyl]butan-2-ol] | 6250 | 525
3 | Cc1nc2c(C(F)(F)F)cccn2c1-c1cccc(Oc2cc(F)cc(S(C)(=O)=O)c2)c1 [Example 15, 3-{3-[3-fluoro-5-(methylsulfonyl)phenoxy]phenyl}-2-methyl-8-(trifluoromethyl)imidazo[1,2-a]pyridine] | 1880 | 119
4 | CCc1nc2c(C(F)(F)F)cccn2c1-c1cccc(Oc2cccc(S(=O)(=O)CCC(C)(C)O)c2)c1 [Example 22, 4-(3-(3-(2-ethyl-8-(trifluoromethyl)imidazo[1,2-a]pyridin-3-yl)phenoxy)phenylsulfonyl)-2-methylbutan-2-ol] | 7130 | 740
5 | CCS(=O)(=O)c1cccc(Oc2cccc(-c3c(Cc4ccccc4)nc4c(C(F)(F)F)cccn34)c2)c1 [Example 29, 2-benzyl-3-(3-(3-(ethylsulfonyl)phenoxy)phenyl)-8-(trifluoromethyl)imidazo[1,2-a]pyridine] | 10 | 1.3
6 | CC(C)S(=O)(=O)c1cccc(Oc2cccc(-c3c(Cc4ccccc4)nc4c(C(F)(F)F)cccn34)c2)c1 [Example 30, 2-benzyl-3-(3-(3-(isopropylsulfonyl)phenoxy)phenyl)-8-(trifluoromethyl)imidazo[1,2-a]pyridine] | 15.8 | 1.7
7 | CCc1nc2c(Cl)cccn2c1-c1cccc(Oc2cccc(S(=O)(=O)N(Cc3ccc(OC)cc3)Cc3ccc(OC)cc3)c2)c1 [Example 42, 3-[3-(8-chloro-2-ethylimidazo[1,2-a]pyridin-3-yl)phenoxy]-N,N-bis(4-methoxybenzyl)benzenesulfonamide] | 920 | 409
8 | CCc1nc2c(Cl)cccn2c1-c1cccc(Oc2cccc(S(=O)(=O)N(C)Cc3ccc(OC)cc3)c2)c1 [Example 43, 3-[3-(8-chloro-2-ethylimidazo[1,2-a]pyridin-3-yl)phenoxy]-N-(4-methoxybenzyl)-N-methylbenzenesulfonamide] | 39.9 | 14.7
9 | CCc1nc2c(C#N)cccn2c1-c1cccc(Oc2cccc(S(=O)(=O)N(Cc3ccc(OC)cc3)Cc3ccc(OC)cc3)c2)c1 [Example 45, 3-[3-(8-cyano-2-ethylimidazo[1,2-a]pyridin-3-yl)phenoxy]-N,N-bis(4-methoxybenzyl)benzenesulfonamide] | > 1000 | > 1000
10 | CCc1nc2c(C(F)(F)F)cccn2c1-c1ccc(-c2cccc(S(C)(=O)=O)c2)nc1 [Example 87, 2-ethyl-3-{6-[3-(methylsulfonyl)phenyl]pyridin-3-yl}-8-(trifluoromethyl)imidazo[1,2-a]pyridine] | – | 8330
11 | CCc1nc2c(C#N)cccn2c1-c1ccc(Oc2cccc(S(C)(=O)=O)c2)cc1 [Example 104, 2-ethyl-3-{4-[3-(methylsulfonyl)phenoxy]phenyl}imidazo[1,2-a]pyridine-8-carbonitrile] | – | > 1000
12 | CCc1nc2c(C#N)cccn2c1-c1ccc(Oc2cccc(S(=O)(=O)CC)c2)cc1 [Example 107, 2-ethyl-3-{4-[3-(ethylsulfonyl)phenoxy]phenyl}imidazo[1,2-a]pyridine-8-carbonitrile] | – | > 1000
13 | CCc1nc2c(C#N)cccn2c1-c1cccc(COc2cccc(S(C)(=O)=O)c2)c1 [Example 110, 2-ethyl-3-(3-{[3-(methylsulfonyl)phenoxy]methyl}phenyl)imidazo[1,2-a]pyridine-8-carbonitrile] | – | > 1000
14 | CCc1nc2c(Cl)cccn2c1-c1ccc(COc2cccc(S(C)(=O)=O)c2)cc1 [Example 112, 8-chloro-2-ethyl-3-(4-{[3-(methylsulfonyl)phenoxy]methyl}phenyl)imidazo[1,2-a]pyridine] | – | > 1000
15 | CS(=O)(=O)c1cccc(Oc2ccc(-c3c(C(F)(F)F)nc4c(C(F)(F)F)cccn34)cc2)c1 [Example 125, 3-{4-[3-(methylsulfonyl)phenoxy]phenyl}-2,8-bis(trifluoromethyl)imidazo[1,2-a]pyridine] | – | 600
16 | CN1CCN(Cc2nc3c(C(F)(F)F)cccn3c2-c2cccc(Oc3cccc(S(C)(=O)=O)c3)c2)CC1 [Example 132, 2-[(4-methylpiperazin-1-yl)methyl]-3-{3-[3-(methylsulfonyl)phenoxy]phenyl}-8-(trifluoromethyl)imidazo[1,2-a]pyridine] | – | > 1000
17 | CNCc1nc2c(C(F)(F)F)cccn2c1-c1cccc(Oc2cccc(S(C)(=O)=O)c2)c1 [Example 134, N-methyl-1-[3-{3-[3-(methylsulfonyl)phenoxy]phenyl}-8-(trifluoromethyl)imidazo[1,2-a]pyridin-2-yl]methanamine] | – | > 1000
18 | CC(C)NCc1nc2c(C(F)(F)F)cccn2c1-c1cccc(Oc2cccc(S(C)(=O)=O)c2)c1 [Example 136, N-{[3-{3-[3-(methylsulfonyl)phenoxy]phenyl}-8-(trifluoromethyl)imidazo[1,2-a]pyridin-2-yl]methyl}propan-2-amine] | – | > 1000

The remaining lines, values ahead:

Row | IC50 (human LXRα) [nM] | IC50 (human LXRβ) [nM] | Structure (SMILES)
19 | 4770 | 508 | CCC(C)S(=O)(=O)c1ccc(Oc2cccc(-c3c(C)nc4c(C(F)(F)F)cccn34)c2)cc1 (stereo not shown) [Example 16, 3-{3-[4-(sec-butylsulfonyl)phenoxy]phenyl}-2-methyl-8-(trifluoromethyl)imidazo[1,2-a]pyridine]
20 | 221 | 5 | CCS(=O)(=O)c1cccc(Oc2cccc(-c3c(C(C)C)nc4c(C(F)(F)F)cccn34)c2)c1 [Example 26, 2-isopropyl-3-(3-(3-(ethylsulfonyl)phenoxy)phenyl)-8-(trifluoromethyl)imidazo[1,2-a]pyridine]
21 | 144 | 8 | CC(C)c1nc2c(C(F)(F)F)cccn2c1-c1cccc(Oc2cccc(S(=O)(=O)C(C)C)c2)c1 [Example 27, 2-isopropyl-3-(3-(3-(isopropylsulfonyl)phenoxy)phenyl)-8-(trifluoromethyl)imidazo[1,2-a]pyridine]
22 | 10200 | 3650 | CC(C)c1nc2c(Cl)cccn2c1-c1cccc(Oc2ccc(S(N)(=O)=O)cc2)c1 [Example 39, 4-(3-(8-chloro-2-isopropylimidazo[1,2-a]pyridin-3-yl)phenoxy)benzenesulfonamide]
23 | 2140 | 151 | CCc1nc2c(Cl)cccn2c1-c1cccc(Oc2cccc(S(N)(=O)=O)c2)c1 [Example 47, 3-[3-(8-chloro-2-ethylimidazo[1,2-a]pyridin-3-yl)phenoxy]benzenesulfonamide]
24 | 14700 | 940 | CCc1nc2c(C#N)cccn2c1-c1cccc(Oc2cccc(S(N)(=O)=O)c2)c1 [Example 50, 3-[3-(8-cyano-2-ethylimidazo[1,2-a]pyridin-3-yl)phenoxy]benzenesulfonamide]
25 | 1860 | 137 | CC(C)c1nc2c(Cl)cccn2c1-c1cccc(OCc2cccc(S(C)(=O)=O)c2)c1 [Example 53, 8-chloro-2-isopropyl-3-(3-{[3-(methylsulfonyl)benzyl]oxy}phenyl)imidazo[1,2-a]pyridine]
26 | – | > 1000 | CC(C)c1nc2c(C#N)cccn2c1-c1ccc(Oc2cccc(S(C)(=O)=O)c2)cc1 [Example 123, 2-(1-methylethyl)-3-{4-[3-(methylsulfonyl)phenoxy]phenyl}imidazo[1,2-a]pyridine-8-carbonitrile]
27 | – | > 1000 | CCS(=O)(=O)c1cccc(Oc2ccc(-c3c(C(C)C)nc4c(C#N)cccn34)cc2)c1 [Example 124, 3-{4-[3-(ethylsulfonyl)phenoxy]phenyl}-2-(1-methylethyl)imidazo[1,2-a]pyridine-8-carbonitrile]
